This is an account of results in ChEMBL document CHEMBL4706474, “Tetrahydro-2-naphthyl and 2-Indanyl Triazolopyrimidines Targeting Plasmodium falciparum Dihydroorotate Dehydrogenase Display Potent and Selective Antimalarial Activity” (J Med Chem, 2016).

In brackets after ≈: the same amount, converted by molar mass.

Series [1] can be described thus: AUC (0 to infinity) in Sprague-Dawley rat at 21.3 mg/kg, po measured over 24 hrs by LC-MS analysis. The series is classed as ADME, organism-based. More on the design: route oral, dose 21.3 mg/kg, time >24. As to conditions: in vivo.
The nature of series [2]: Solubility of compound in FeSSIF at pH 5.8 measured after 5 to 6 hrs by HPLC-UV based analysis. As to conditions: simulated gi fluid, time 5-6 hrs. The format is physicochemical.
The nature of series [3]: Unbound volume of distribution at steady state in Sprague-Dawley rat at […], iv administered as infusion for 10 mins by LC-MS analysis. The series is classed as ADME, organism-based. The note with it: in vivo, dose 1.6 mg/kg.
Series [4] in a line: Cmax in Sprague-Dawley rat at 17.5 mg/kg, po measured over 24 hrs by LC-MS analysis. Further details: route oral, dose 17.5 mg/kg, time >24. As to conditions: in vivo. The format is ADME, organism-based.

With `Cc1cc(NC2Cc3cc(F)c(F)cc3C2)n2nc(C(C)(F)F)nc2n1`, the AUC(0-inf) in series [1] turned out to be 202 µM·h. The compound further registered a solubility in series [2] of 0.065 mg/mL (≈ 178 µM).
As for `Cc1cc(N[C@H]2CCc3ccc(Cl)cc3C2)n2nc(C(C)(F)F)nc2n1`, in series [3], the fVdss came out at 186 L/kg. Besides, the Cmax in series [4] was determined as 3.3 µM.

A word on the AUC(0-inf): it is the area under the concentration-time curve extrapolated to infinity. Broadly, the solubility is the concentration that dissolves in the medium under given conditions. A high value points to a readily soluble substance. The Cmax is the maximum level reached in the sampled fluid or tissue.
